The target in test [1] is Serine/threonine-protein kinase 4, STK4/MST1 (Homo sapiens) (UniProt Q13043). Description: Inhibition of MST1 (unknown origin).
In test [2] the target is 3-phosphoinositide-dependent protein kinase 1, PDPK1 (Homo sapiens) (UniProt O15530). Description: Inhibition of PDK1 (unknown origin).

pIC50: −log10 of the molar value.

Serine/threonine-protein kinase 4, STK4/MST1 (Homo sapiens), sequence (Q13043 whole entry, looked up): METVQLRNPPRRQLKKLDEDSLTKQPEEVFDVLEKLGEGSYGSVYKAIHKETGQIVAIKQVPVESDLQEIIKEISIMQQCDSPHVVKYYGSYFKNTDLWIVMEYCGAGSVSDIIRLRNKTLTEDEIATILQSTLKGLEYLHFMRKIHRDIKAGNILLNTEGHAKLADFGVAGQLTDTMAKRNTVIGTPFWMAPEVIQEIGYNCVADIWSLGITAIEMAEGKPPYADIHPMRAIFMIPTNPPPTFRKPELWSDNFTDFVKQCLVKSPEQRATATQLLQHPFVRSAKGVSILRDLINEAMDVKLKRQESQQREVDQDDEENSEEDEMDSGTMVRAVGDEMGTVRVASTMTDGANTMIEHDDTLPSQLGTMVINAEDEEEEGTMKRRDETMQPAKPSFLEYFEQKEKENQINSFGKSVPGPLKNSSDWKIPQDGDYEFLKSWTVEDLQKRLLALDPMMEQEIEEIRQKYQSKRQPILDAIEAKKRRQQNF
3-phosphoinositide-dependent protein kinase 1, PDPK1 (Homo sapiens), sequence (O15530 whole entry, looked up): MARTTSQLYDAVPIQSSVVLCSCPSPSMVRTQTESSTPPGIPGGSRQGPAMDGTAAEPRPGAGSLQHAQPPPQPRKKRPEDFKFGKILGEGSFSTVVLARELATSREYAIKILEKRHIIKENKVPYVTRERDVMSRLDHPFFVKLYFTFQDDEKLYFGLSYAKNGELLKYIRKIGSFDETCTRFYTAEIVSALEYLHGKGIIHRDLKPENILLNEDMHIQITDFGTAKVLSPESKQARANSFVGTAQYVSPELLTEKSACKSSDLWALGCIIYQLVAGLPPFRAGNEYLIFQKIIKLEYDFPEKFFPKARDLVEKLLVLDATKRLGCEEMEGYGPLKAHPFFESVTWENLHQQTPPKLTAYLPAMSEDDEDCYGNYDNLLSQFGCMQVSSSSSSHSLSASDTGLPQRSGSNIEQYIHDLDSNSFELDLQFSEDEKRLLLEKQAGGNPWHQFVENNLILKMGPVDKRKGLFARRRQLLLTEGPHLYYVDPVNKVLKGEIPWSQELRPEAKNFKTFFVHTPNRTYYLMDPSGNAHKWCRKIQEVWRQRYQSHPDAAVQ

With `O=C(c1ccc(F)c(F)c1Nc1ccc(I)cc1F)N1CC(O)([C@@H]2CCCCN2)C1`, the pIC50 in test [1] and in test [2] was less than 5.00 each time.

The term pIC50 denotes the IC50 on a negative log10 scale, so that one unit is a factor of ten. Low values mean a high IC50, high ones a low IC50.

(Values after BindingDB's records for PubMed 22084396 (Genentech, Inc and Exelixis).)
